# Measured values reported in ChEMBL document CHEMBL1137945, “Design, synthesis, and activity of HDAC inhibitors with a N-formyl hydroxylamine head group” (Bioorg Med Chem Lett, 2004).
# How the values were obtained:
# [1] = target: T1, Histone deacetylase 8 (Homo sapiens, UniProt Q9BY41)
# T1 sequence (Q9BY41 whole entry): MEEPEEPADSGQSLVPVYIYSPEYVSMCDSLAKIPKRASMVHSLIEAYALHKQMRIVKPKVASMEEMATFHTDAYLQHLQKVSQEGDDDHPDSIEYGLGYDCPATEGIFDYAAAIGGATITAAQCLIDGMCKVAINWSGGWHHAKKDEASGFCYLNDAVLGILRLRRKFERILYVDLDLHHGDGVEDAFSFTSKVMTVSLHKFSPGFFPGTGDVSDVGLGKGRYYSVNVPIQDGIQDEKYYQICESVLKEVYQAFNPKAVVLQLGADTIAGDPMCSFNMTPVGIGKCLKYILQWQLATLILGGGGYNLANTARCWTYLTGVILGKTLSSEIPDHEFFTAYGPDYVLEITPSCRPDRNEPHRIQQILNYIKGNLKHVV
# Description: Inhibition of Histone deacetylase 8 (HDAC8) of HeLa nuclear extracts
# [2] = target: Histone deacetylase 2 (Homo sapiens, UniProt Q92769); test: Inhibition of Histone deacetylase 2 (HDAC2) activity of HeLa nuclear extracts
# Histone deacetylase 2, sequence (Q92769 whole entry): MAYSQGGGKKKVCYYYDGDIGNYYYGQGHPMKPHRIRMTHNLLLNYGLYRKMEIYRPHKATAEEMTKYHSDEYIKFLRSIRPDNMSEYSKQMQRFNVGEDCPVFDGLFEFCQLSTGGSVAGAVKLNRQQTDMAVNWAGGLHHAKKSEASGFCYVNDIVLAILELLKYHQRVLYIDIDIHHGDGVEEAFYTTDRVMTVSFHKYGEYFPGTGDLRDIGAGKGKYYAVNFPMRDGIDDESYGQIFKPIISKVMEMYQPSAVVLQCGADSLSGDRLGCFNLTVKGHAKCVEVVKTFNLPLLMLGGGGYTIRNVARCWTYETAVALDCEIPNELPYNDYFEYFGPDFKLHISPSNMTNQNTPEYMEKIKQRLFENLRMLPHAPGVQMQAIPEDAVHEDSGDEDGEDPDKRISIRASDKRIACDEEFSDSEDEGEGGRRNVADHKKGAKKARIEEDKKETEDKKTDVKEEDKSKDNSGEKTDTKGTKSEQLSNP
# [3] = target: Histone deacetylase; test: Inhibition of Histone deacetylase (HDAC)of HeLa nuclear extracts; assay type: protein assay, Homo sapiens
# [4] = target: T2, Protein deacetylase HDAC6 (Homo sapiens, UniProt Q9UBN7)
# T2 sequence (Q9UBN7 whole entry): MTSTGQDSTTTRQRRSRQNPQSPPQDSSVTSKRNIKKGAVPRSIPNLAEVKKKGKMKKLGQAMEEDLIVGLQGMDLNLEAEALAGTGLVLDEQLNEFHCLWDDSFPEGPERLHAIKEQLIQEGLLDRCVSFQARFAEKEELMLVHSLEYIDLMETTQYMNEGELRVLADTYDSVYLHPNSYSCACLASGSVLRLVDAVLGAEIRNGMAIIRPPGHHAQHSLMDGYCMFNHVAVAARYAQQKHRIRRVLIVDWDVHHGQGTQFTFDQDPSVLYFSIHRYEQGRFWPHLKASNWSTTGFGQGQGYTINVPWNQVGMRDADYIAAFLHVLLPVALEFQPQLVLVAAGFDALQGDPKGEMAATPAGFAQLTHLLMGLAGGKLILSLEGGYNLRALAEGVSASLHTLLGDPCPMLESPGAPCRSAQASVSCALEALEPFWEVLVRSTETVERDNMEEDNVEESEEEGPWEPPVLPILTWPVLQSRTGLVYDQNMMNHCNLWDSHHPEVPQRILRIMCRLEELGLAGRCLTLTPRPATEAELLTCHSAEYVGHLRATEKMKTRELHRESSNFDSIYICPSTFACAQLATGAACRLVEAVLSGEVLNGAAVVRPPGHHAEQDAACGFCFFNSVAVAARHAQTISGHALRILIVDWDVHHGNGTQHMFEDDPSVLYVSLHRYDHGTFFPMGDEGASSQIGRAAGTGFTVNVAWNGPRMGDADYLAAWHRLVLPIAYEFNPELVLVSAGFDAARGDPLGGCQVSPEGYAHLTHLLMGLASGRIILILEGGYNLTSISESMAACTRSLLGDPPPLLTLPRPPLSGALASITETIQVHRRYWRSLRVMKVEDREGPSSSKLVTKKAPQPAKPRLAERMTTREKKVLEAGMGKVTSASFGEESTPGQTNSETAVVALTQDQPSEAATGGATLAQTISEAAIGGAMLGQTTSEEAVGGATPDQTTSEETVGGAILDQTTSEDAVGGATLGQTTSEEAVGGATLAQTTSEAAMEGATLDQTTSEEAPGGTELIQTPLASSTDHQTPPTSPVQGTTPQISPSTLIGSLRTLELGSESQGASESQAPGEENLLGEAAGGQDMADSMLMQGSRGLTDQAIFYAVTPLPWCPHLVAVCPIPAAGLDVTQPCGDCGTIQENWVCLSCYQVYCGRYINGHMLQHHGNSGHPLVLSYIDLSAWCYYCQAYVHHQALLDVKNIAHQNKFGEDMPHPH
# Description: Inhibition of Histone deacetylase 6 (HDAC6) of HeLa nuclear extracts
# [5] = target: Histone deacetylase 1 (Homo sapiens, UniProt Q13547)
# Histone deacetylase 1, sequence (Q13547 whole entry): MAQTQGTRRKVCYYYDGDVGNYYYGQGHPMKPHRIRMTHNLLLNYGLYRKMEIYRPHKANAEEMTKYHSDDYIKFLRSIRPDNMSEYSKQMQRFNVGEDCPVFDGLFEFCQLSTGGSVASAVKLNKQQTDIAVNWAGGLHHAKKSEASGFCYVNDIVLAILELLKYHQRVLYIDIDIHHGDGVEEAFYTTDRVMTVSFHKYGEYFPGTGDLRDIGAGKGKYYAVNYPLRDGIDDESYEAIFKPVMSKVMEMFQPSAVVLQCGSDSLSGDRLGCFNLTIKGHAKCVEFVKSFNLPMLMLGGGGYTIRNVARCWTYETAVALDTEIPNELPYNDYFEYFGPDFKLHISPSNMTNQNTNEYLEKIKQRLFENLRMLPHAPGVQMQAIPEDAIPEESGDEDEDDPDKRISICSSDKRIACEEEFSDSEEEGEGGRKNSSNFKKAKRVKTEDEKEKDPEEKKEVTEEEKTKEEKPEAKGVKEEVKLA
# Description: Inhibition of Histone deacetylase 1 (HDAC1) of HeLa nuclear extracts
# [6] = Activity in histone hyperacetylation assay in cells; assay type: functional
# [7] = test system: bone marrow cells (Homo sapiens); test: cells
# [8] = species on record: Homo sapiens; test: Compound was tested for anti-proliferative activity in human hepatocytes; assay type: functional, organism-based; conditions: Hepatocyte
# [9] = test system: U-937; test: Compound was tested for anti-proliferative activity in U-937 human leukemia cell line; assay type: functional, cell-based
# [10] = test system: Jurkat; test: Compound was tested for anti-proliferative activity in Jurkat human leukemia cell line; assay type: functional, cell-based
SMILES,IC50 [1] [µM],IC50 [2] [µM],IC50 [3] [µM],IC50 [4] [µM],IC50 [5] [µM],EC50 [6] [µM],EC50 [7] [µM],EC50 [8] [µM],EC50 [9] [µM],EC50 [10] [µM]
O=CN(O)CCCCCCCC(=O)Nc1cccc2ccccc12,0.65,5.9,50,3.1,5.7,–,–,–,–,–
COC(=O)N(O)CCCCCCC(=O)Nc1ccccc1,> 100,> 100,–,> 100,–,–,–,–,–,–
CC(=O)N(O)CCCCCC(=O)Nc1ccccc1,> 100,> 100,> 100,> 100,–,–,–,–,–,–
CC(=O)N(O)CCCCCCCC(=O)Nc1ccccc1,> 100,> 100,–,> 100,–,–,–,–,–,–
O=CN(O)CCCCCCCC(=O)Nc1ccccc1,2.8,7.8,–,5.5,–,–,–,–,–,–
O=CN(O)CCCCCCC(=O)Nc1ccccc1,4,11,–,–,–,–,–,–,–,–
O=CN(O)CCCCCC(C(=O)Nc1cnc2ccccc2c1)C(=O)Nc1cnc2ccccc2c1,0.69,0.2,0.97,0.78,0.16,5.1,78,41,40,11
O=CN(O)CCCCCC(=O)Nc1ccccc1,6.8,19,–,2.8,–,–,–,–,–,–
O=CN(O)CCCCCNC(=O)CCc1ccccc1,9.7,41,> 100,30,49,–,–,–,–,–
O=CN(O)CCCCCCCC(=O)Nc1ccc2ccccc2c1,0.78,0.89,4,0.91,0.81,–,–,–,–,–
O=CN(O)CCCCCC(C(=O)Nc1ccc2ncccc2c1)C(=O)Nc1ccc2ncccc2c1,0.8,0.27,0.75,0.62,0.18,10,130,> 500,100,31
O=CN(O)CCCCCNC(=O)c1ccccc1,22,26,> 100,4.3,30,–,–,–,–,–
O=CN(O)CCCCCNC(=O)c1ccc2ccccc2c1,7,1.4,4.4,0.6,1.3,–,–,–,–,–
O=C(CCCCCCC(=O)Nc1ccccc1)NO [VORINOSTAT],–,–,–,–,–,–,–,–,33,2.3
